Measured values taken from paper PMC11111408, “Concurrent inhibition of oncogenic and wild-type RAS-GTP for cancer therapy” (Nature, 2024).
“And” between values parts separate entries of the source, which are not always exact repeats. Equal values may be shown once. Read-outs that look alike come from different tables or passages of the source.

How the values were obtained:
[1] = molecular target: T1, CYPA (Homo sapiens, UniProt P62937); assay: CYPA binding affinity (Kd1), SPR; settings: steady state, (95% CI)
T1 construct: His6-TEV-AviTag-CYPA (full-length); His6-TEV (N); made in house; host or cells: BL21(DE3) Escherichia coli
Protocol: The binding affinity of compounds for CYPA (Kd1) was assessed by SPR on a Biacore 8K instrument as previously described.

[2] = system: Capan-1 cells; assay: Cellular ERK phosphorylation (pERK); format: cell-based; settings: Homo sapiens; Capan-1 (KRAS^G12V PDAC); (95% CI)
[3] = system: A375 cells; assay: Cellular ERK phosphorylation (pERK); format: cell-based, human; settings: Homo sapiens, A-375; A375 (BRAF^V600E)
[4] = system: Capan-1 cells; assay: Cell proliferation (CTG); format: cell-based; settings: Homo sapiens; Capan-1, CTG; (95% CI)
Protocol: (§1) Alternatively, cells were seeded in round-bottom ultra-low attachment 96-well plates, centrifuged at 1,000 rpm for 10 min to pellet the cells, and incubated overnight or up to 72 h to allow for 3D spheroid formation. […] Cell viability was determined by CellTiter-Glo 2.0 reagent (2D CTG) (Promega, G9243) or 3D CellTiter-Glo reagent (3D CTG) (Promega, G9683) according to the manufacturer’s protocols. Luminescence was detected using a SpectraMax M5 Plate Reader (Molecular Devices) of Perkin Elmer Enspire. Luminescence signal was normalized to vehicle-treated wells (normalized signal (%) = (luminescence (treated)/mean luminescence (vehicle)) × 100%). […] Data were plotted as log [inhibitor (M)], and a four-parameter sigmoidal concentration response model was fitted to the data to calculate EC50. […] Pa16C MEK1 mutant cells were evaluated by live-cell counting using Calcein AM and a SpectraMax i3X multi-mode detection platform (Molecular Devices). Growth percentages were calculated by normalizing the treated cell counts to their respective untreated cell counts.

[5] = system: A375 cells; assay: Cell proliferation (CTG); format: cell-based, human; settings: Homo sapiens, A-375; A375, CTG; (95% CI)
Protocol: as §1

[6] = molecular target: KRAS^G12V (Homo sapiens, UniProt P01116+P62937, G12V); assay: RAS binding affinity of compound-bound CYPA (Kd2), SPR; parameters: His6-TEV (N); made in house; host or cells: BL21(DE3) Escherichia coli; settings: steady state, (95% CI)
[7] = system: Pa16C cells expressing MEK1 mutants; assay: Proliferation (Calcein AM) of Pa16C cells expressing MEK1 mutants; format: cell-based, human
[8] = system: NCI-H441, HPAC and SW620 CDX models; assay: CDX models, RMC-7977 versus SHP2 and MEK inhibitors; settings: three KRAS^G12X models; RMC-7977 10 mg kg^−1 once daily, RMC-4550 20 mg kg^−1 every 2 days, cobimetinib 2.5 mg kg^−1 once daily, alone or in combination
Protocol: Data are mean ± s.e.m. of 3–18 mice per group.
Female BALB/c nude mice, NOD SCID and NSG mice 6-8 weeks old from Beijing Vital River/VR Laboratory Animal Co., LTD, Beijing AniKeeper Biotech Co., Ltd., Shanghai Sino-British SIPPR/BK Laboratory Animal Co., LTD and The Jackson Laboratory were used. Animals were housed in polycarbonate cages, in an environmentally monitored, well ventilated room maintained at a constant temperature of 20-26°C and relative humidity of 40-80%. Fluorescent lighting provided illumination approximately 12 hours per day. Each mouse was inoculated at the right flank with tumor cells (2x10^6-1x10^7) in 100-200 µL of media/PBS supplemented with Matrigel (1:1). Treatments were started when the average tumor size reached 100-250 mm^3. […] Mice on studies were weighed and tumor measurements collected twice weekly. Human primary cancer xenograft models were generated using fresh cancer tumor fragments obtained from hospitals with informed consent from the patients in accordance with protocols approved by the Hospital Institutional Ethical Committee (IEC). Tumor fragments were serial-passaged in BABL/c nude mice and then cryopreserved. Cryopreserved tumors were recovered by implantation in BALB/c nude mice and further serial passaged and frozen for study implantation use. Recovered tumor fragments of about 15-30 mm3 in size from each model were implanted into right flanks of Balb/c nude mice. Treatment started when average tumor volume reached 100-250mm^3. For efficacy study, Animals were assigned to study groups using stratified randomization based upon their tumor volumes (n=3-10/group). […] Animals were treated for 28 days (or up to 110 for selected models) or an earlier time if tumor burden reached humane endpoint. Mean ± s.e.m was plotted in the waterfall plots. The dashed line on waterfall plot indicates a 10% reduction in tumor volume from baseline. […] Body weights were collected twice a week during the study. For single-dose pharmacokinetic/pharmacodynamics (PK/PD) study, mice were randomized into treatment groups when mean tumor volume reached 400-600 mm^3.

[9] = Oral bioavailability in mice (LC-MS/MS of blood); format: in vivo; settings: mouse, whole blood, read-out: Oral Bioavailability m%F
[10] = system: AsPC-1 and NCI-H441 cells; assay: pERK (MSD) and proliferation (CTG) in AsPC-1 and NCI-H441 cells, CYPA inhibitor co-treatment or PPIA KO; format: cell-based, human; settings: for activity at 0.00046 µM: 0.46 nM
[11] = system: RAS-less MEFs; assay: Western blots of isogenic RAS-less MEF cells expressing KRAS variants or BRAF(V600E); format: cell-based, mouse; settings: 24 h, western blot

CCn1c(-c2cc(N3CCN(C)CC3)cnc2[C@H](C)OC)c2c3cc(ccc31)-c1csc(n1)C[C@H](NC(=O)[C@H]1CCO1)C(=O)N1CCC[C@H](N1)C(=O)OCC(C)(C)C2 [Compound 4]
Kd [1]: 605 nM
EC50 [2]: 1.94 nM
EC50 [3]: > 10000 nM
EC50 [4]: 14.2 nM
EC50 [5]: 6950 nM
Kd [6]: 292 nM

O=C(Nc1ccc2[nH]nc(-c3ccncc3)c2c1)[C@@H]1CCN(CC(=O)N2CCN(c3ccc(-c4ncccn4)cc3)CC2)C1 [SCH772984]
Proliferation of Pa16C cells expressing MEK1 mutant constructs ([7]; MEK1E102-I103del, inhibitor 0.046 nM): 102.4 and 93.7 and 111.1 and 109.2
Proliferation of Pa16C cells expressing MEK1 mutant constructs ([7]; MEK1E102-I103del, inhibitor 0.412 nM): 88.7 and 97.2 and 116.5 and 112.2
Proliferation of Pa16C cells expressing MEK1 mutant constructs ([7]; MEK1E102-I103del, inhibitor 1.235 nM): 62.5 and 77.2 and 97.3 and 86.7
Proliferation of Pa16C cells expressing MEK1 mutant constructs ([7]; MEK1K57N, inhibitor 0.046 nM): 116 and 117.1 and 131.7 and 130.6
Proliferation of Pa16C cells expressing MEK1 mutant constructs ([7]; MEK1K57N, inhibitor 0.412 nM): 139 and 146.7 and 118.9 and 144.8
Proliferation of Pa16C cells expressing MEK1 mutant constructs ([7]; MEK1K57N, inhibitor 1.235 nM): 153.6 and 157.6 and 123.4 and 129.5
Proliferation of Pa16C cells expressing MEK1 mutant constructs ([7]; MEK1K57N, inhibitor 3.704 nM): 116.2 and 140.9 and 100.4 and 107.4
Proliferation of Pa16C cells expressing MEK1 mutant constructs ([7]; MEK1K57N, inhibitor 11.111 nM): 83.1 and 119.2 and 75.2 and 67
Proliferation of Pa16C cells expressing MEK1 mutant constructs ([7]; MEK1Q56P, inhibitor 0.046 nM): 136.2 and 107 and 127.7 and 113.2
Proliferation of Pa16C cells expressing MEK1 mutant constructs ([7]; MEK1Q56P, inhibitor 0.412 nM): 178.1 and 122.6 and 149.9 and 115.3
Proliferation of Pa16C cells expressing MEK1 mutant constructs ([7]; MEK1Q56P, inhibitor 1.235 nM): 166.6 and 134 and 125.8 and 104.6
Proliferation of Pa16C cells expressing MEK1 mutant constructs ([7]; MEK1Q56P, inhibitor 3.704 nM): 131.2 and 128.6 and 108.4 and 83.5
Proliferation of Pa16C cells expressing MEK1 mutant constructs ([7]; MEK1S218D/S222D, inhibitor 0.046 nM): 105.3 and 97.5 and 108.4 and 102.6
Proliferation of Pa16C cells expressing MEK1 mutant constructs ([7]; MEK1S218D/S222D, inhibitor 0.412 nM): 90.3 and 97.7 and 107.5 and 108.3
Proliferation of Pa16C cells expressing MEK1 mutant constructs ([7]; MEK1S218D/S222D, inhibitor 1.235 nM): 59.2 and 93.4 and 100.5 and 90.2
Proliferation of Pa16C cells expressing MEK1 mutant constructs ([7]; MEK1WT, inhibitor 0.046 nM): 113.6 and 107.4 and 114.6 and 111.6
Proliferation of Pa16C cells expressing MEK1 mutant constructs ([7]; MEK1WT, inhibitor 0.412 nM): 127.4 and 95.8 and 106.8 and 108.8
Proliferation of Pa16C cells expressing MEK1 mutant constructs ([7]; MEK1WT, inhibitor 1.235 nM): 95.9 and 89.3 and 90.3 and 82.4
Proliferation of Pa16C cells expressing MEK1 mutant constructs ([7]; MEK1WT, inhibitor 3.704 nM): 49.4 and 66.6 and 61 and 49.7
Proliferation of Pa16C cells expressing MEK1 mutant constructs ([7]; MEK1WT, inhibitor 11.111 nM): 29.9 and 38 and 33.3 and 24.2

O=C(c1ccc(F)c(F)c1Nc1ccc(I)cc1F)N1CC(O)([C@@H]2CCCCN2)C1 [cobimetinib]
anti-tumour activity [8]: only modest tumour growth inhibition

CCn1c(-c2cccnc2[C@H](C)OC)c2c3cc(ccc31)-c1csc(n1)C[C@H](NC(=O)[C@H](C(C)C)N(C)C(C)=O)C(=O)N1CCC[C@H](N1)C(=O)OCC(C)(C)C2 [Compound 2]
Kd [1]: 330 nM
EC50 [2]: 31.6 nM
EC50 [3]: > 10000 nM
EC50 [4]: 149 nM
EC50 [5]: > 10000 nM
bioavailability [9]: 0.4%

CCn1c(-c2cccnc2[C@H](C)OC)c2c3cc(ccc31)-c1csc(n1)C[C@H](NC(=O)[C@H]1CCO1)C(=O)N1CCC[C@H](N1)C(=O)OCC(C)(C)C2 [Compound 3]
Kd [1]: 6270 nM
EC50 [2]: 124 nM
EC50 [3]: > 10000 nM
EC50 [4]: 615 nM
EC50 [5]: > 10000 nM
bioavailability [9]: 44%
Kd [6]: 818 nM

CC(=O)Nc1cccc(-n2c(=O)n(C3CC3)c(=O)c3c(Nc4ccc(I)cc4F)n(C)c(=O)c(C)c32)c1 [trametinib, reference compound]
effect of disruption of the PPIA locus on sensitivity ([10]; AsPC-1 and NCI-H441, pERK and proliferation): did not affect sensitivity
activity at 16.9 pM ([10]; Homo sapiens, ASPC1, AsPC-1, […], read-out: pERK inhibition in PPIA KO cells treated with trametinib): 106%
activity at 0.00046 µM ([10]; Homo sapiens, ASPC1, AsPC-1 PPIA KO, read-out: pERK inhibition in PPIA KO cells treated with trametinib): 47%
activity at 0.00412 µM ([10]; Homo sapiens, ASPC1, AsPC-1 PPIA KO, 4.12 nM, read-out: Proliferation inhibition in PPIA KO cells treated with trametinib): 25.5%
activity at 0.037 µM ([10]; Homo sapiens, ASPC1, AsPC-1 PPIA KO, 37.00 nM, read-out: Proliferation inhibition in PPIA KO cells treated with trametinib): 9.16%
activity at 0.333 µM ([10]; Homo sapiens, ASPC1, AsPC-1 PPIA KO, 333.00 nM, read-out: Proliferation inhibition in PPIA KO cells treated with trametinib): 4.83%
activity at 50 pM ([10]; Homo sapiens, NCI-H441, NCI-H441, 0.05 nM, read-out: Proliferation inhibition in PPIA KO cells treated with trametinib): 120%
activity at 0.00412 µM ([10]; Homo sapiens, NCI-H441, NCI-H441, 4.12 nM, read-out: Proliferation inhibition in PPIA KO cells treated with trametinib): 49.5%
activity at 0.037 µM ([10]; Homo sapiens, NCI-H441, NCI-H441, 37.00 nM, read-out: Proliferation inhibition in PPIA KO cells treated with trametinib): 44.6%
activity at 0.333 µM ([10]; Homo sapiens, NCI-H441, NCI-H441, 333.00 nM, read-out: Proliferation inhibition in PPIA KO cells treated with trametinib): 42.2%
activity at 1 µM ([10]; Homo sapiens, NCI-H441, NCI-H441, 1000.00 nM, read-out: Proliferation inhibition in PPIA KO cells treated with trametinib): 35.6%
activity at 0.00046 µM ([10]; Homo sapiens, NCI-H441, NCI-H441 PPIA KO, read-out: pERK inhibition in PPIA KO cells treated with trametinib): 59%
activity at 0.00412 µM ([10]; Homo sapiens, NCI-H441, NCI-H441 PPIA KO, 4.12 nM, read-out: Proliferation inhibition in PPIA KO cells treated with trametinib): 47%
activity at 0.037 µM ([10]; Homo sapiens, NCI-H441, NCI-H441 PPIA KO, 37.00 nM, read-out: Proliferation inhibition in PPIA KO cells treated with trametinib): 40.9%
activity at 0.333 µM ([10]; Homo sapiens, NCI-H441, NCI-H441 PPIA KO, 333.00 nM, read-out: Proliferation inhibition in PPIA KO cells treated with trametinib): 37.7%
activity at 1 µM ([10]; Homo sapiens, NCI-H441, NCI-H441 PPIA KO, 1000.00 nM, read-out: Proliferation inhibition in PPIA KO cells treated with trametinib): 28.5%
pERK suppression in RAS-less MEFs [11]: reduced pERK similarly in all cells

Cc1nc(N2CCC3(CC2)CO[C@@H](C)[C@H]3N)c(CO)nc1-c1cccc(Cl)c1Cl [RMC-4550]
anti-tumour activity [8]: only modest tumour growth inhibition
